According to ChEMBL document CHEMBL4507294, “Data for DCP probe MSD-CYP11B2” (2021):

How the values were obtained:
[1] = biological target: Receptor-interacting serine/threonine-protein kinase 1 (Homo sapiens) (UniProt Q13546); settings: Compound concentration 1000.0 nM
[2] = biological target: Bone morphogenetic protein receptor type-2 (Homo sapiens) (UniProt Q13873); settings: Compound concentration 1000.0 nM
[3] = biological target: Serine/threonine-protein kinase LATS2 (Homo sapiens) (UniProt Q9NRM7); settings: Compound concentration 1000.0 nM
[4] = biological target: Cyclin-dependent kinase-like 1 (Homo sapiens) (UniProt Q00532); settings: Compound concentration 1000.0 nM
[5] = biological target: Serine/threonine-protein kinase 3 (Homo sapiens) (UniProt Q13188); settings: Compound concentration 1000.0 nM
[6] = biological target: Serine/threonine-protein kinase 4 (Homo sapiens) (UniProt Q13043); settings: Compound concentration 1000.0 nM
[7] = biological target: Serine/threonine-protein kinase SBK1 (Homo sapiens) (UniProt Q52WX2); settings: Compound concentration 1000.0 nM
[8] = biological target: Receptor tyrosine-protein kinase erbB-4 (Homo sapiens) (UniProt Q15303); settings: Compound concentration 1000.0 nM
[9] = biological target: Fibroblast growth factor receptor 2 (Homo sapiens) (UniProt P21802); settings: Compound concentration 1000.0 nM
[10] = biological target: Mitogen-activated protein kinase kinase kinase 10 (Homo sapiens) (UniProt Q02779); settings: Compound concentration 1000.0 nM
[11] = biological target: MAP/microtubule affinity-regulating kinase 3 (Homo sapiens) (UniProt P27448); settings: Compound concentration 1000.0 nM
[12] = biological target: Cyclin-dependent kinase 4 (Homo sapiens) (UniProt P11802); settings: Compound concentration 1000.0 nM
[13] = biological target: Serine/threonine-protein kinase Nek9 (Homo sapiens) (UniProt Q8TD19); settings: Compound concentration 1000.0 nM
[14] = biological target: Rho-associated protein kinase 2 (Homo sapiens) (UniProt O75116); settings: Compound concentration 1000.0 nM
[15] = biological target: Cyclin-dependent kinase 19 (Homo sapiens) (UniProt Q9BWU1); settings: Compound concentration 1000.0 nM
[16] = biological target: Myosin light chain kinase family member 4 (Homo sapiens) (UniProt Q86YV6); settings: Compound concentration 1000.0 nM
[17] = biological target: Ribosomal protein S6 kinase alpha-1 (Homo sapiens) (UniProt Q15418); settings: Compound concentration 1000.0 nM
[18] = biological target: Serine/threonine-protein kinase Sgk1 (Homo sapiens) (UniProt O00141); settings: Compound concentration 1000.0 nM
[19] = biological target: T1, 5-hydroxytryptamine receptor 2C (Homo sapiens) (UniProt P28335); settings: Compound concentration 10.0 uM
T1 sequence (whole entry): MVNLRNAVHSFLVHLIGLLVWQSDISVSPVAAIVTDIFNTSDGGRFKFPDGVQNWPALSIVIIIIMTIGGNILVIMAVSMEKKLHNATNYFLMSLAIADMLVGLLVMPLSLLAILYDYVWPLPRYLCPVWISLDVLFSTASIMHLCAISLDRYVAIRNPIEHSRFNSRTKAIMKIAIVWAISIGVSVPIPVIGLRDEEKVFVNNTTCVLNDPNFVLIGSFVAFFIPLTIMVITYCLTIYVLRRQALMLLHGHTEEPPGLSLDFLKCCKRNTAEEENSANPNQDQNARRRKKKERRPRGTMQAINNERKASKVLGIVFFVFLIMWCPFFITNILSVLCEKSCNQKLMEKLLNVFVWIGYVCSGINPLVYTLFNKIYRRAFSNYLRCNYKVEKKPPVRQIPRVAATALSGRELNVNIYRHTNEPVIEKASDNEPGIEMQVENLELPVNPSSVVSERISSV

[20] = biological target: Tyrosine-protein kinase Fgr (Homo sapiens) (UniProt P09769); settings: Compound concentration 1000.0 nM
[21] = biological target: Serine/threonine-protein kinase MARK2 (Homo sapiens) (UniProt Q7KZI7); settings: Compound concentration 1000.0 nM
[22] = biological target: Ephrin type-A receptor 5 (Homo sapiens) (UniProt P54756); settings: Compound concentration 1000.0 nM
[23] = biological target: Ribosomal protein S6 kinase alpha-4 (Homo sapiens) (UniProt O75676); settings: Compound concentration 1000.0 nM
[24] = biological target: Atypical kinase COQ8A, mitochondrial (Homo sapiens) (UniProt Q8NI60); settings: Compound concentration 1000.0 nM
[25] = biological target: T2, Muscarinic acetylcholine receptor M2 (Homo sapiens) (UniProt P08172); settings: Compound concentration 10.0 uM
T2 sequence (whole entry): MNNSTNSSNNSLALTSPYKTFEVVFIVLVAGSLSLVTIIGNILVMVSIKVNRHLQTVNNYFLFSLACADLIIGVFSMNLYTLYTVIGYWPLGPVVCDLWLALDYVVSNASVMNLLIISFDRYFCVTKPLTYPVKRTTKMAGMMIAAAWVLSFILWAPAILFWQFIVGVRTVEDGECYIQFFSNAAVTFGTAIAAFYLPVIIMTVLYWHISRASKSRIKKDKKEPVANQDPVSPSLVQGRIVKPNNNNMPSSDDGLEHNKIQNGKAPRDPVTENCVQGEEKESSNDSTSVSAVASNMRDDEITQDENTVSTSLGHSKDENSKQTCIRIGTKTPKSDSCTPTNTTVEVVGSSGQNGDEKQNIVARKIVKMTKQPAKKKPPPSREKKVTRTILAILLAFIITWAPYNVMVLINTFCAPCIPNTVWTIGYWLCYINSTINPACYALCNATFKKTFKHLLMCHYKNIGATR

[26] = biological target: Calcium/calmodulin-dependent protein kinase type II subunit delta (Homo sapiens) (UniProt Q13557); settings: Compound concentration 1000.0 nM
[27] = biological target: Mitotic checkpoint serine/threonine-protein kinase BUB1 (Homo sapiens) (UniProt O43683); settings: Compound concentration 1000.0 nM
[28] = biological target: Serine/threonine-protein kinase haspin (Homo sapiens) (UniProt Q8TF76); settings: Compound concentration 1000.0 nM
[29] = biological target: Calcium/calmodulin-dependent protein kinase type IV (Homo sapiens) (UniProt Q16566); settings: Compound concentration 1000.0 nM
[30] = biological target: Cyclin-dependent kinase 16 (Homo sapiens) (UniProt Q00536); settings: Compound concentration 1000.0 nM
[31] = test system: Mast/stem cell growth factor receptor Kit (Homo sapiens), P10721 [V559D,T670I]; settings: Compound concentration 1000.0 nM
[32] = biological target: Mitogen-activated protein kinase kinase kinase 14 (Homo sapiens) (UniProt Q99558); settings: Compound concentration 1000.0 nM
[33] = biological target: Homeodomain-interacting protein kinase 3 (Homo sapiens) (UniProt Q9H422); settings: Compound concentration 1000.0 nM

Calcium/calmodulin-dependent protein kinase type IV (Homo sapiens), sequence (Q16566 whole entry): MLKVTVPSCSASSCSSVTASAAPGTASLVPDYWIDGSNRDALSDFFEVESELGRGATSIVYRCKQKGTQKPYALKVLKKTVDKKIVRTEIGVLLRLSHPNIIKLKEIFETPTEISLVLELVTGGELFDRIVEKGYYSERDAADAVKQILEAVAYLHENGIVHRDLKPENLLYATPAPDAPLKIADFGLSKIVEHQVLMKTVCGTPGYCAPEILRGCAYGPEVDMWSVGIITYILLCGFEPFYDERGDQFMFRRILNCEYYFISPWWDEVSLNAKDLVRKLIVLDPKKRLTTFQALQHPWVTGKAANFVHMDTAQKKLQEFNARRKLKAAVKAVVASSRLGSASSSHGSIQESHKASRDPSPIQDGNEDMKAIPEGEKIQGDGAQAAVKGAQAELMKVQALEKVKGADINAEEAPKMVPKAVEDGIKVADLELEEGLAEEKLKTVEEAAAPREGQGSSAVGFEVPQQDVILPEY
Bone morphogenetic protein receptor type-2 (Homo sapiens), sequence (Q13873 whole entry): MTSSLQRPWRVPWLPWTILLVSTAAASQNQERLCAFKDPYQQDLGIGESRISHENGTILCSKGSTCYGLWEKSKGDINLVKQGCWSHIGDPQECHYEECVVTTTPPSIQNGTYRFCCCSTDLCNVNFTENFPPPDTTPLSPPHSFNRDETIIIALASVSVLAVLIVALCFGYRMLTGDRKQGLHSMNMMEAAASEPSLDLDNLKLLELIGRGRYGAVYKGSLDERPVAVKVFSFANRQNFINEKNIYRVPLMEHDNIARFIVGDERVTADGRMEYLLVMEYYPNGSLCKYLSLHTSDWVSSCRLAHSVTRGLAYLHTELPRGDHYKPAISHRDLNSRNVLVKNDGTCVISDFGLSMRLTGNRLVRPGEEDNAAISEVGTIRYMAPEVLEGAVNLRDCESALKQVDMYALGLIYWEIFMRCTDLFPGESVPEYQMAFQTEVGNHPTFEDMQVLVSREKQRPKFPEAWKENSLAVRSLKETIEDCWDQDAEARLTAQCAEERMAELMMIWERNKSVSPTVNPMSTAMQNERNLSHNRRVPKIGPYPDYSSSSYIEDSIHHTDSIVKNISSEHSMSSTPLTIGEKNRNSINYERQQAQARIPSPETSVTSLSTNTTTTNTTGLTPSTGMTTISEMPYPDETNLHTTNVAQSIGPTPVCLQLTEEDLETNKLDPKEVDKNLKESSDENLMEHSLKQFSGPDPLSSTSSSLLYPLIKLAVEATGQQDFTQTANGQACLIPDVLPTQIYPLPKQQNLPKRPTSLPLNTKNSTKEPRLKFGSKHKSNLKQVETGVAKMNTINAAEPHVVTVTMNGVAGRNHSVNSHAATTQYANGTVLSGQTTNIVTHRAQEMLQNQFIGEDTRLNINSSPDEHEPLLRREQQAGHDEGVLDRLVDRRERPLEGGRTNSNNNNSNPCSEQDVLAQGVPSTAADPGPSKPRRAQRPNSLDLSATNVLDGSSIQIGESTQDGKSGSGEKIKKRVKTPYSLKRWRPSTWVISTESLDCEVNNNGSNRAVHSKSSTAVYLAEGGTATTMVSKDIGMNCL
Mitogen-activated protein kinase kinase kinase 14 (Homo sapiens), sequence (Q99558 whole entry, looked up): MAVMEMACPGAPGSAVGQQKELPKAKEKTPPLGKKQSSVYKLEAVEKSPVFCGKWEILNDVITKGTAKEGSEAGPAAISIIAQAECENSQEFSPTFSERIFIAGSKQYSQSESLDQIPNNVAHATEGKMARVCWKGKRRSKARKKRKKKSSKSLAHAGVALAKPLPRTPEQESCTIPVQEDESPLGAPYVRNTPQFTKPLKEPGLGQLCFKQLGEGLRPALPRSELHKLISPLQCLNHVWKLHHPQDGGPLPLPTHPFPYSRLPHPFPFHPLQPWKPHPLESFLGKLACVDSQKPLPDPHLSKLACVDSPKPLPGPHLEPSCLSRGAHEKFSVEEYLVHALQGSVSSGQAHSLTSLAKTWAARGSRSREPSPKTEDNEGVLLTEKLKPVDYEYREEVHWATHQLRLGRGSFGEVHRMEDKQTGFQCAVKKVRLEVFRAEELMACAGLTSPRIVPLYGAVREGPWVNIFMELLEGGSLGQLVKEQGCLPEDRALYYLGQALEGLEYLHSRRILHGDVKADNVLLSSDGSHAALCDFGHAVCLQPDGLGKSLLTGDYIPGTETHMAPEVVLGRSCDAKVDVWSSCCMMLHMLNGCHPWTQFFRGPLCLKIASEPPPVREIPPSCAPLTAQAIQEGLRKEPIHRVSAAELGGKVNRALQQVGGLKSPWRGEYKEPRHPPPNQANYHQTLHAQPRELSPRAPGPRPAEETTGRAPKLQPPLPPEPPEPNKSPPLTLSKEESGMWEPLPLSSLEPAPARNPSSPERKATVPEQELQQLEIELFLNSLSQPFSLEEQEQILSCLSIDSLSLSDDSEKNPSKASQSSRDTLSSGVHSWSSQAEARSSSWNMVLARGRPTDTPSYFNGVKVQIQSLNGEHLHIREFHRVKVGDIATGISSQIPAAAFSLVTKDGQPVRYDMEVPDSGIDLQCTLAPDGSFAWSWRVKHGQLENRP
Serine/threonine-protein kinase haspin (Homo sapiens), sequence (Q8TF76 whole entry): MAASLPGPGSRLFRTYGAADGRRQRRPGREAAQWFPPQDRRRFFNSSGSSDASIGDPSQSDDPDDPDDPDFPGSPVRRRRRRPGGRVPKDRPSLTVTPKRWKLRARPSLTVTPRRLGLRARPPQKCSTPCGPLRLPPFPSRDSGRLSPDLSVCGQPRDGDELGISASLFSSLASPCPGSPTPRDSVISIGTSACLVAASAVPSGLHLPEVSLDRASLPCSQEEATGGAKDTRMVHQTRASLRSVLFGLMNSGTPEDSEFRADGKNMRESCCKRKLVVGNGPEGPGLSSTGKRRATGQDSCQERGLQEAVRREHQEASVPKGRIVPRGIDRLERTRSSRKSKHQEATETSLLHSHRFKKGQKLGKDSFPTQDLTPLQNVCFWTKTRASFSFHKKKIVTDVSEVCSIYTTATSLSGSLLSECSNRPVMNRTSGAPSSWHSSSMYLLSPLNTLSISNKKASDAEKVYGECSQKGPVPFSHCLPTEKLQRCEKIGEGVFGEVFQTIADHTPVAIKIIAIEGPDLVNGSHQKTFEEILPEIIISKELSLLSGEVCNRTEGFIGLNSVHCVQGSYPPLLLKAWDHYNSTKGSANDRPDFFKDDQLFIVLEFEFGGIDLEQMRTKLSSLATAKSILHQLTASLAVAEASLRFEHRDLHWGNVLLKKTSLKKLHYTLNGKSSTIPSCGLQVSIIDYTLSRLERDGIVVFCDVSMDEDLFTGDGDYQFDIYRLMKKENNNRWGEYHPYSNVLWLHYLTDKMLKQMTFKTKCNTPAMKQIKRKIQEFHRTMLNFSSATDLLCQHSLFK
Fibroblast growth factor receptor 2 (Homo sapiens), sequence (P21802 22-821 limits assumed): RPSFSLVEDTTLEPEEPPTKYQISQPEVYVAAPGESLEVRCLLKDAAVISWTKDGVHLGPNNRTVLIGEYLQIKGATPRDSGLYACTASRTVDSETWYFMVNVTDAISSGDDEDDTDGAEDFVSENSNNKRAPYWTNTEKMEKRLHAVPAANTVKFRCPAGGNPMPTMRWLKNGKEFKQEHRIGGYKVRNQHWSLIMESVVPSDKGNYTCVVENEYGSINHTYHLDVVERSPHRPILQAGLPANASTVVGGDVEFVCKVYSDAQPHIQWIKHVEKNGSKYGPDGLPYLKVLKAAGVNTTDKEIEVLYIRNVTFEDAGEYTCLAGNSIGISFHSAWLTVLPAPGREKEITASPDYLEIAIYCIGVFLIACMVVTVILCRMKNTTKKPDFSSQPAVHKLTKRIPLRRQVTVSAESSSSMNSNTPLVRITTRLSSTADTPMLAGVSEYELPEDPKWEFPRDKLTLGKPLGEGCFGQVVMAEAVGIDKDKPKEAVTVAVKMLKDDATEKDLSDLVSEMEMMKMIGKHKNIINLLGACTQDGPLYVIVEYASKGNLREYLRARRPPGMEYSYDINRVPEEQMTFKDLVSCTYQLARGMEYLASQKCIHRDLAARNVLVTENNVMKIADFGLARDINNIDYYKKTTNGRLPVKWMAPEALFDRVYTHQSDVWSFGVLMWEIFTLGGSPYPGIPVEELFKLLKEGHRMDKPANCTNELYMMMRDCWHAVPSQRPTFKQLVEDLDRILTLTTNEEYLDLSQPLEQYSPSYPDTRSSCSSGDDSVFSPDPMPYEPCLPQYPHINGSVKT
Serine/threonine-protein kinase MARK2 (Homo sapiens), sequence (Q7KZI7 whole entry): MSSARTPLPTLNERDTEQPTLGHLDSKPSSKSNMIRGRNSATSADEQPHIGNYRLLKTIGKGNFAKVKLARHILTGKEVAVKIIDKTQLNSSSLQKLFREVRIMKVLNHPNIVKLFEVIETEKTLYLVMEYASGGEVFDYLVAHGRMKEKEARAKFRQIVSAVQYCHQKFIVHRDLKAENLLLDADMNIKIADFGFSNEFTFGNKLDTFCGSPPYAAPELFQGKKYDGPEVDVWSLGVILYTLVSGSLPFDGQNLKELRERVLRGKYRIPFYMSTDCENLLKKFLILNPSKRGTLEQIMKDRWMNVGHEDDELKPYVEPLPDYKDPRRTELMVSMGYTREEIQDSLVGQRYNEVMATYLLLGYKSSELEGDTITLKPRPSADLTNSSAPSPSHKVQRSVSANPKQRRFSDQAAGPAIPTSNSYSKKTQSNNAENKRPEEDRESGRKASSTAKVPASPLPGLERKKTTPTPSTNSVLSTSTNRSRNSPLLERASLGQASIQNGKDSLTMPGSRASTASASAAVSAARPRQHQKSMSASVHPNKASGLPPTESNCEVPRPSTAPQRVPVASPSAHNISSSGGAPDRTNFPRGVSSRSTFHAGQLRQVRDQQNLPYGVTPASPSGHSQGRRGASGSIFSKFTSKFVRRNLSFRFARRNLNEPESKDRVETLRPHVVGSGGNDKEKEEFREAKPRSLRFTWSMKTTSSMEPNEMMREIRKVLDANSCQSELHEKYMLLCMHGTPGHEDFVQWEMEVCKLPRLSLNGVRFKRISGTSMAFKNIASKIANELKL

## FC(F)(F)c1ccc2c(c1)nc(-c1cccnc1)n2C1CC1 [MSD-CYP11B2-Negative-control]
[1]
  residual activity: 100%
[2]
  residual activity: 100%
[3]
  residual activity: 100%
[4]
  residual activity: 91%
[5]
  residual activity: 94%
[6]
  residual activity: 100%
[7]
  residual activity: 100%
[8]
  residual activity: 100%
[9]
  residual activity: 100%
[10]
  residual activity: 100%
[11]
  residual activity: 100%
[12]
  residual activity: 100%
[13]
  residual activity: 100%
[14]
  residual activity: 100%
[15]
  residual activity: 100%
[16]
  residual activity: 100%
[17]
  residual activity: 100%
[18]
  residual activity: 100%
[19]
  inhibition: 30.8%
[20]
  residual activity: 100%
[21]
  residual activity: 100%
[22]
  residual activity: 96%
[23]
  residual activity: 100%
[24]
  residual activity: 100%
[25]
  inhibition: 2.99%
[26]
  residual activity: 100%
[27]
  residual activity: 89%
[28]
  residual activity: 96%
[29]
  residual activity: 100%
[30]
  residual activity: 100%
[31]
  residual activity: 100%
[32]
  residual activity: 100%
[33]
  residual activity: 100%

## CC(C)(O)c1cncc(-c2nc3ccc(F)cc3n2C2CC2)c1 [MSD-CYP11B2]
[1]
  residual activity: 100%
[2]
  residual activity: 100%
[3]
  residual activity: 100%
[4]
  residual activity: 100%
[5]
  residual activity: 100%
[6]
  residual activity: 100%
[7]
  residual activity: 100%
[8]
  residual activity: 100%
[9]
  residual activity: 100%
[10]
  residual activity: 100%
[11]
  residual activity: 100%
[12]
  residual activity: 100%
[13]
  residual activity: 100%
[14]
  residual activity: 92%
[15]
  residual activity: 94%
[16]
  residual activity: 100%
[17]
  residual activity: 100%
[18]
  residual activity: 100%
[19]
  inhibition: 100%
[20]
  residual activity: 100%
[21]
  residual activity: 100%
[22]
  residual activity: 100%
[23]
  residual activity: 100%
[24]
  residual activity: 100%
[25]
  inhibition: -0.1%
[26]
  residual activity: 100%
[27]
  residual activity: 99%
[28]
  residual activity: 83%
[29]
  residual activity: 100%
[30]
  residual activity: 100%
[31]
  residual activity: 100%
[32]
  residual activity: 100%
[33]
  residual activity: 93%
